Data set [1] concerns CML CD34+ cells. The data set is described as follows: LC-MS steady state metabolite analysis of primary CML CD34+ cells. It is filed as cell-based, human. The procedure:
(§1) Cells were counted using a CASY counter with the following parameters: E-cur 7.5-22.5, N-cur 5.25-20.5. Cell number was multiplied by peak volume (size) and this number was used to calculate volume of solvent to extract in. Cells were pelleted by centrifugation (400 RCF, 10 minutes, room temperature) at which medium was removed for YSI analysis. Cells were then washed twice with ice cold PBS (Calcium and Magnesium free: Thermo Fisher Scientific) with pulse centrifugation (12,000RCF, 15 seconds, 4° C.) used between and after washes. Cells were then extracted in LC-grade ACN:MeOH:H2O solvent (−20° C., 5:3:2) by disrupting the pellet by pipetting followed by a 5 second vortex. Finally, debris was pelleted by centrifugation (16,000RCF, 10 minutes, 4° C.), supernatant transferred to LC-MS glass vials that were stored at −80° C. until analysis.
The LC system composed of a ZIC-pHILIC column (SeQuant, 150×2.1 mm, 5 μm, Merck KGaA) with a ZIC-pHILIC guard column (SeQuant, 20×2.1 mm) with an UltiMate 3000 HPLC system (Thermo Fisher Scientific). The aqueous mobile-phase solvent was 20 mM ammonium carbonate-0.1% ammonium hydroxide solution and with acetonitrile being used for organic mobile phase. A linear biphasic LC gradient was conducted from 80% organic to 80% aqueous for 15 min for a total run time of 22 min. The column temperature was maintained at 45° C. flow rate set to 200 μL/min.
The MS used in this study was a qExactive Plus Orbitrap Mass Spectrometer (Thermo Fisher Scientific) operating in polarity switching mode. The MS set up was calibrated using a custom CALMIX in both ionization modes before analysis and a tune file targeted towards the lower m/z range was used. Full scan (MS1) data was acquired in both ionization modes in profile mode at 70,000 resolution (at m/z range 75-1000), an automatic gain control (AGC) target of 1×10^6 (max fill time of 250 ms), with spray voltages +4.5 kV (capillary +50V, tube: […], skimmer: +20V) and −3.5 kV (capillary −50V, tube: […], skimmer: −20V) and s-lens RF level of 50 for the front optics. The capillary temperature 375° C., probe temperature 50′C, sheath gas flow rate 25, auxiliary gas flow rate 15a.u. 15 and sweep gas flow rate of 1a.u.
(§2) The peak areas of different metabolites were determined using Tracefinder 4.1 software (Thermo Fisher Scientific). Metabolites were identified by accurate mass of the singly charged ion and by known retention times on the pHILIC column. A commercially available standard compound mix (Merck: MSMLS-1EA) had been analysed previously on our LC-MS system to determine accurate ion masses and retention times. The 13C labelling was determined by quantifying peak areas for the accurate mass of all isotopologues of each metabolite.
Two independent experiments were performed, data normalised to first sample in each experiment, processed through Autoplotter (56), samples as experiments, and normalised data as replicates. […] For MSDC-0160 treated samples a batch correction (to non-drug control) was used prior to analysis using Metabonalyst. Volcano plots were generated, and an FDR adjusted t-test threshold 0.1 was utilised. Note both fold changes and p-values are log transformed. Top-25 scoring metabolites are included in heatmap.

In data set [2] the test system is CML CD34+ cells. The data set is described as follows: Colony forming cell (CFC) assay of CML CD34+ cells. In kind it is cell-based, human. The following applies: 72 hours, n=6 CML patients.
Data set [3] relates to CML CD34+ cells. The experiment in a line: 13C stable isotope tracing (glucose, glutamine, palmitate) in primary CML CD34+ cells. In kind it is cell-based, human. The procedure: For conjugation of palmitate, a 20 mM stock was made in 100% EtOH. This was incubated on a shaking heater, 60° C. until the solution clarified. The palmitate was then added to 10% BSA (ultra-fatty acid free in EBSS, Roche, 03117057001) to give a palmitate:BSA ratio of 1:3 BSA. This solution was left for 15 min in water bath (37° C.), and then added to final concentration in complete medium. For cell line experiments, the medium was RPMI with 10% dialysed FBS and 1% penicillin/streptomycin. For tracing experiments 11 mM ^13C6 glucose was added to glucose-free RPMI.
as §1, §2
Biological and technical replicates were processed through Autoplotter (56) and natural abundance was corrected for. Fraction of enrichment was calculated as m+2 and above. For CML samples treated with or without imatinib, multiple paired T-tests were conducted on Log 10 transformed values in Graphpad Prism. The correction for multiple comparisons was the two-stage step-up method of Benjamini, Krieger and Yekutieli with an FDR (Q) value of 10%. For volcano plots Log 10 FC vs Log 10 (q value) are plotted with q values>5% in red and >10% in blue. For normal vs CML comparisons, the process was the same with the exception that unpaired t-tests were used. For PC activity in normal vs CML, this is denoted by fraction m+3. For imatinib vs untreated we look at relative activity to PDH. IE., the m+3/m+2 ratio and conducted multiple t-tests with correction for multiple comparisons being the two-stage step-up method of Benjamini, Krieger and Yekutieli with an FDR (Q) value of 10%.

In data set [4] the test system is normal CD34+ cells. The data set is described as follows: Colony forming cell (CFC) assay of normal CD34+ cells. In kind it is cell-based, human. The following applies: 72 hours, n=3 healthy donors.
In data set [5] the test system is CML CD34+ cells. The data set is described as follows: Proliferation (cell doubling time) and apoptosis (Annexin V/7-AAD) of primary CML CD34+ cells. The following applies: imatinib 2 μM.
Data set [6] deals with phospho-AMPK. The experiment in a line: Western blot of AMPK and phospho-AMPK in CD34+ CML cells. It is filed as cell-based, human. The following applies: imatinib-treated patient samples, 24 hours. (Immunoblotting shows a protein as a band on a membrane.)
Method: Cells were lysed in RIPA buffer containing mini-Complete protease inhibitor cocktail and phosphatase inhibitors (both Roche). Total protein concentration was quantified using a Pierce BCA kit (Thermo Fisher Scientific: 23227). Equal amounts of protein (5-7.5 μg) were heated at 95° C. for 5 min and separated (120V) in 4-12% gels (Novex) for SDS-PAGE. Proteins were transferred onto PDVF membranes (Thermo Fisher Scientific: 21882) then blocked in 2% BSA (in Tris-buffered saline, 0.01% Tween (TBS-T)) for one hour. Next, membranes were incubated overnight at 4° C. with the primary antibodies. The membranes were rinsed three times with TBS-T, then incubated with secondary HRP-linked antibodies (1:10,000) for 1 hour at room temperature. The SuperSignal West Femto Maxi detection system was used (Thermo Fisher Scientific: 34095) and imaging was carried out using a LI-COR Odyssey Fc gel-doc system.
The test system of data set [7] is CML CD34+ cells. The experiment in a line: Mitochondrial respiratory capacity (FCCP-induced oxygen consumption rate). In kind it is cell-based, human. The following applies: imatinib-treated samples.
Where [8] appears, read: imatinib 2 μM, 48 hours, CML CD34+ cells.

For the compound `CCc1ccc(C(=O)COc2ccc(CC3SC(=O)NC3=O)cc2)nc1` (stereo not shown) [MSDC-0160], in data set [1] (primary CML CD34+ samples, 24 hours, highest dose), the “dose at which steady state analysis showed significant metabolic changes” value was found to be 100 µM. Also, the “number of colonies, MSDC-0160 added to imatinib” value in data set [2] (20 or 50 μM MSDC-0160 plus 2 μM imatinib) is listed as “further concentration-dependent reduction”. For the same compound, in data set [3] (20 or 100 μM MSDC-0160, primary CML CD34+ samples), the “m+2 and m+3 fractions of TCA cycle metabolites” value was “significant decreases to both m+2 and m+3 fractions”. In addition, the “inhibition of glucose oxidation in primitive CD34+CD38- population” value in data set [3] (compared with CD34+CD38+ progenitor population, data not shown) is “to a similar extent as in the CD34^+CD38^+ progenitor population”. The “inhibition of labelling in stromal co-culture” value in data set [3] (presence of stromal cells, 24-hour culture, 50 uM) is listed as “also achieved in the presence of stromal cells”. The “total glucose contribution and m+3 contribution to TCA cycle metabolites” value in data set [3] (primary CML CD34+ samples, 24 hours) was “reduced both total glucose contribution and m+3 contribution to TCA cycle metabolites in a dose-dependent manner”. Also, the “dose required to fully inhibit labelling” value in data set [3] (primary CML CD34+ samples, medium with Albumax II) came to 100 µM. Also, the “CFC potential of normal CD34+ cells, single agent” value in data set [4] was “no significant effect”. The “CFC potential of normal CD34+ cells, combination treatment” value in data set [4] (MSDC-0160 plus 2 μM imatinib) is “no significant effect”.
Consider `Cc1ccc(NC(=O)c2ccc(CN3CCN(C)CC3)cc2)cc1Nc1nccc(-c2cccnc2)n1` [imatinib], for which, in data set [1] (imatinib 2 μM, 48 hours), the ATP levels result is reported as “trend towards reduced ATP levels”; the “oxidative stress, cellular redox and TCA cycle metabolites, steady state” value was “decreases”. The AMP/ATP ratio entry in data set [1] (imatinib 2 μM, 48 hours, n=4 patient samples) is given as “significant increase in AMP/ATP ratio”. In addition, the “cell proliferation (cell doubling time)” value in data set [5] (primary CML CD34+ cells in Plasmax, p-value=0.0659) is reported as “inhibited cell proliferation”. In addition, the level of apoptosis result in data set [5] (primary CML CD34+ cells, p-value=0.081) is on record as “modest, sample-dependent increase in the level of apoptosis”. In addition, the number of colonies result in data set [2] (2 μM imatinib alone) is recorded as “reduced the number of colonies”. Also, the “glucose incorporation (13C-glucose labelling) in sorted CML CD34+CD38- cells” value in data set [3] (imatinib 2 μM, 24 hours, n=3) is “statistically significant reduction”. The “relative PC/PDH activity in CML CD34+CD38- cells” value in data set [3] (imatinib 2 μM, 24 hours, n=3, p-value=0.0870) is reported as “increased in all three patient samples”. For the same compound, in data set [3] (setting [8]), the “PC relative to PDH contribution of glucose (m+3/m+2 ratio in malate, citrate, aspartate)” value is reported as “increased”; the “glucose contribution to metabolite fraction labelling (13C6 glucose)” value is “reduced”; the “glutamine contribution to metabolite fraction labelling (13C5 glutamine)” value is “reduced”; the “palmitate contribution to metabolite fraction labelling (13C16 palmitate)” value is “not significantly different”. Besides, in data set [3] (imatinib, primary CML CD34+ samples, not shown), the “labelled fractions of TCA cycle metabolites affected” value is recorded as “only affected m+2 fractions”. For the same compound, the “AMPK and phospho-AMPK protein levels” value in data set [6] is listed as “variable depending on patient sample”. The “CFC potential of normal CD34+ cells, single agent” value in data set [4] is listed as “no significant effect”. Moreover, in data set [7], the “mitochondrial respiratory capacity (FCCP-induced oxygen consumption rate)” value was “reduced”.

The values above are taken from US20260014129A1, “MITOCHONDRIAL PYRUVATE METABOLISM INHIBITORS FOR TREATING CHRONIC MYELOID LEUKEMIA” (The University Court of the University of Glasgow, priority 2022, published 2026).
